The values that follow come from article PMC3156385 (Chemical research in toxicology, 2011).

Each structure is given as a SMILES string.

Data set [1] concerns the target T1, P450 2A6 (Homo sapiens, UniProt P11509).
T1 sequence (P11509 1-494): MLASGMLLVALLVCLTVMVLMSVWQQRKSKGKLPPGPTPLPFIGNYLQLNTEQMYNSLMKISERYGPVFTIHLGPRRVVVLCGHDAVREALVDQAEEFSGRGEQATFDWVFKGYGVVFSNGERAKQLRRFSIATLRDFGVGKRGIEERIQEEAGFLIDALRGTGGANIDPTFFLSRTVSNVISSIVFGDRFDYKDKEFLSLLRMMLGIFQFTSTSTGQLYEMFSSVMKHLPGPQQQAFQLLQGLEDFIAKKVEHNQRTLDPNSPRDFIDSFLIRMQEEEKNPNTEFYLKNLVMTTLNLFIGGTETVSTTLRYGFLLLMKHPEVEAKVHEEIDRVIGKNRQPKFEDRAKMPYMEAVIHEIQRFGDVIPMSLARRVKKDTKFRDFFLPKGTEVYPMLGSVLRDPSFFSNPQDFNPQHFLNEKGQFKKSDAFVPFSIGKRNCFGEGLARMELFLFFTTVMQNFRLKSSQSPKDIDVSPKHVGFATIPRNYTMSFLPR
The data set is described as follows: Inhibition of P450 2A6-dependent coumarin 7-hydroxylation. In kind it is biochemical.

The next data set deals with T2, P450 2A13 (Homo sapiens, UniProt Q16696).
T2 sequence (Q16696 1-494): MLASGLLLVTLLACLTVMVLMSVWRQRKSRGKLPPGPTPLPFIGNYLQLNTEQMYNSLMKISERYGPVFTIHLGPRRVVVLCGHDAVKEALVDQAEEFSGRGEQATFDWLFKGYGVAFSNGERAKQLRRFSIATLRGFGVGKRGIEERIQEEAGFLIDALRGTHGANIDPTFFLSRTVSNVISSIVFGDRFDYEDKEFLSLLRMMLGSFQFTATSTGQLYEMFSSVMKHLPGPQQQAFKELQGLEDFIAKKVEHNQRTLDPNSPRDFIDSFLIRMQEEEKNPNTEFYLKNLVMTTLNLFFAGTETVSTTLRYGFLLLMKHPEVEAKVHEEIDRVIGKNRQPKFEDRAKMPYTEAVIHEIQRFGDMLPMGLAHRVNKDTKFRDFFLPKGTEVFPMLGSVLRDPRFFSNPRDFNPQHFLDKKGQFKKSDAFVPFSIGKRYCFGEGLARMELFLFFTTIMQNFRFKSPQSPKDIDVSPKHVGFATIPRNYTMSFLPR
Put plainly: Inhibition of P450 2A13-dependent coumarin 7-hydroxylation. In kind it is biochemical.

For a further data set, the target named is T3, P450 1B1 (Homo sapiens, UniProt Q16678).
T3 sequence (Q16678 1-543): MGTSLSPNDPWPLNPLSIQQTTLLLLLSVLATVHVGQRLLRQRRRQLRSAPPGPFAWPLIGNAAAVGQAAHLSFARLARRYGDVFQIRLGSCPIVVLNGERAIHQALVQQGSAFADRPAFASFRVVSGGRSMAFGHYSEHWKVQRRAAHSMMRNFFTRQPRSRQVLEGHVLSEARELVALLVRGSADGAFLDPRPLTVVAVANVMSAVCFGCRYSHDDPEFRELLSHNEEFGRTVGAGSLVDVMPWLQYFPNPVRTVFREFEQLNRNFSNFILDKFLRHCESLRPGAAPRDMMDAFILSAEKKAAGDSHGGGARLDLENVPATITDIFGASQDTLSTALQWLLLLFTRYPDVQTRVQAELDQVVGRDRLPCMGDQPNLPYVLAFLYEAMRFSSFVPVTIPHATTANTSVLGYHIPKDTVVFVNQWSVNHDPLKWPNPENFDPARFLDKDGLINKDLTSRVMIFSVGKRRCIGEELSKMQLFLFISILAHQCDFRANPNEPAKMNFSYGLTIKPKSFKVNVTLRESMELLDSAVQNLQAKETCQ
The data set is described as follows: Spectral binding titration with purified recombinant P450 1B1. The settings on record: for ΔAmax/Ks / ΔAmax: Reverse Type I binding, 1 µM P450; for ΔAmax: means ± SE.

In data set [2] the target is T1, P450 2A6. The data set is described as follows: Spectral binding titration with purified recombinant P450 2A6. Conditions: for ΔAmax/Ks / ΔAmax: Type I binding, 1 µM P450; for ΔAmax: means ± SE.
The target of the next data set is T4, P450 1A1 (Homo sapiens, UniProt P04798).
T4 sequence (P04798 1-512): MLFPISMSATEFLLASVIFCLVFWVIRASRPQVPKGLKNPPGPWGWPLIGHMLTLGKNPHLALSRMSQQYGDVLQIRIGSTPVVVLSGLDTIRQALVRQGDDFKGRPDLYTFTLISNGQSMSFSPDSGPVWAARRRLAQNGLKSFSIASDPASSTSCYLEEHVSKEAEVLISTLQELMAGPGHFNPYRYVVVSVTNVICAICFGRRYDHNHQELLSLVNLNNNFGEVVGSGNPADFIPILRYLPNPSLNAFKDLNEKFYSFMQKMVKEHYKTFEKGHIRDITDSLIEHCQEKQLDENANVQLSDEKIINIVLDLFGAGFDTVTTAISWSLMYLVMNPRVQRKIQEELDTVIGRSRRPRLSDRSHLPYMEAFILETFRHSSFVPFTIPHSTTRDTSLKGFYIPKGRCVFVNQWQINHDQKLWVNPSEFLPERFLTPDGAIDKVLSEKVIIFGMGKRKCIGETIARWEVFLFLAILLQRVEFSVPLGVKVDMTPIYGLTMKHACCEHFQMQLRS
The data set is described as follows: Inhibition of P450 1A1-dependent EROD activity. In kind it is biochemical.

For another data set, the target named is T5, P450 1A2 (Homo sapiens, UniProt P05177).
T5 sequence (P05177 1-516): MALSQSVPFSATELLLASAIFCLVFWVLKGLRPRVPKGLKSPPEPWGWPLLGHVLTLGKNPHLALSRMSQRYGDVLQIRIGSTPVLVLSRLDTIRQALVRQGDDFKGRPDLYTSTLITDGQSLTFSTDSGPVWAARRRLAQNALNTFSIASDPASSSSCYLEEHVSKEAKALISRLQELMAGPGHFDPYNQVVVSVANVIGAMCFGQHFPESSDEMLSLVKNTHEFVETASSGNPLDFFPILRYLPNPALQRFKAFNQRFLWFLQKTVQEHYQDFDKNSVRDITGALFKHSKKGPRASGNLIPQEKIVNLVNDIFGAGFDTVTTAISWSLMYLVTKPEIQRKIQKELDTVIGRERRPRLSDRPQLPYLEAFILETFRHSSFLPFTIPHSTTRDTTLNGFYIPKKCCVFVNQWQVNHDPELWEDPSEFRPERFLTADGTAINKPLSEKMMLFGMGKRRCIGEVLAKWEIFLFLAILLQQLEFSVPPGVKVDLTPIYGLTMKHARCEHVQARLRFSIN
Put plainly: Inhibition of P450 1A2-dependent EROD activity. The data set is classed as biochemical.

Regarding `N#C[Se]Cc1cccc(C[Se]C#N)c1` [m-XSC, 1,3-phenylenebis(methylene)selenocyanate], at P450 2A6 [1], it took 2.4 ± 0.19 µM to reach half-maximal inhibition (IC50). For the same compound, on P450 2A13, the IC50 was 0.22 ± 0.031 µM. In addition, on P450 1B1, the Kd was found to be 5.7 ± 1 µM, the ΔAmax/Ks is reported as 3.70 × 10^−3 and the ΔAmax is given as 21 ± 1.0 × 10^−3. Besides, at P450 1B1 (difference spectra), the “type of binding spectra” value was “Reverse Type I”. For the same compound, at P450 2A6 [2], the Kd amounted to 5.7 ± 0.52 µM, the ΔAmax/Ks was 6.50 × 10^−3 and the ΔAmax is 37 ± 0.88 × 10^−3.

For `N#C[Se]Cc1ccccc1` [BSC, benzyl selenocyanate], the IC50 on P450 1A1 turned out to be 0.45 ± 0.038 µM; against P450 1A2, 1.3 ± 0.22 µM; against P450 2A6 [1], 4.3 ± 0.36 µM; against P450 2A13, 1.2 ± 0.19 µM. Further, the results for the Kd on P450 1B1 and at P450 2A6 [2] were 5.3 ± 0.96 µM and 2 ± 0.14 µM, respectively. Also, the ΔAmax/Ks on P450 1B1 is 3.60 × 10^−3; on P450 2A6 [2], 32.00 × 10^−3. In addition, the figures for the ΔAmax at P450 1B1 and at P450 2A6 [2] were 19 ± 0.11 × 10^−3 and 66 ± 0.93 × 10^−3, respectively. Further, the “type of binding spectra” value at P450 2A6 [2] (difference spectra) was “Type I”.
